Laboratory results as given in patent US20200222377A1, “Methods Of Enhancing And/Or Stabilizing Cardiac Function In Patients With Fabry Disease” (Amicus Therapeutics, Inc., priority 2017, published 2020).

How the values were obtained:
ERT-naïve Fabry patients [1] = experiment: Phase 3 study of migalastat therapy in ERT-naïve Fabry patients: MWFS by echocardiography; type: in vivo, human; details: for Change from baseline in MWFS, mean / Mean change from baseline in MWFS: amenable mutations
Description: This example describes a Phase 3 study of migalastat therapy in ERT-naïve Fabry patients. Patient Enrollment. […] Study Design. […] Echocardiography. LVMi, left posterior wall thickness, diastolic, interventricular septum thickness, diastolic and other parameters were assessed through blinded, centralized evaluation. Baseline MWFS. At baseline, impaired MWFS (<15% for females and <14% for males) was reported in 9 patients.

[2] = tested on: ERT-experienced Fabry patients; experiment: Phase 3 study of migalastat therapy in ERT-experienced Fabry patients: MWFS by echocardiography; type: in vivo, human
Description: This example describes a Phase 3 study of migalastat therapy in ERT-experienced Fabry patients.
Study Design. Following eligibility-baseline assessments, 57 patients were randomized to 18 months of migalastat therapy or ERT, followed by followed by 12 months of migalastat therapy. The migalastat dosing regimen was 150 mg of migalastat hydrochloride every other day.
Baseline MWFS. At baseline, impaired MWFS (<15% for females and <14% for males) was reported in 19 (14 migalastat, 5 ERT) patients.

ERT-naïve Fabry patients [3] = details: human, in vivo
Description: (§1) Study Design. Following eligibility-baseline assessments (2 months), patients were randomized to Stage 1—6 months of double-blind administration of 150 mg migalastat hydrochloride or placebo every other day. All patients completing Stage 1 were eligible to receive open-label migalastat in Stage 2 (months 6-12) and for an additional year (months 13-24) thereafter. The primary objective was to compare the effect of migalastat to placebo on kidney GL-3 as assessed by histological scoring of the number of inclusions in interstitial capillaries after 6 months of treatment. The secondary objectives of Stage 1 were to compare the effect of migalastat to placebo on urine GL-3 levels, on renal function, 24-hours urinary protein, and on safety and tolerability. The tertiary objectives were cardiac function, patient-reported outcomes, exploratory kidney analyses, and white blood cell α-Gal A activity. Study completers were eligible to enroll in the open-label extension study for up to 5 years.
(§2) Safety Analysis and Adverse Events. Randomized patients receiving ≥1 dose were included in the safety analysis, which comprised vital signs, physical exams, electrocardiograms, clinical labs, and adverse events.

[4] = target: T1, wild-type α-Gal A and specific mutant forms of α-Gal A (Homo sapiens, UniProt P06280); details: selective and reversible binding; cited from earlier work
T1 sequence (P06280 32-429): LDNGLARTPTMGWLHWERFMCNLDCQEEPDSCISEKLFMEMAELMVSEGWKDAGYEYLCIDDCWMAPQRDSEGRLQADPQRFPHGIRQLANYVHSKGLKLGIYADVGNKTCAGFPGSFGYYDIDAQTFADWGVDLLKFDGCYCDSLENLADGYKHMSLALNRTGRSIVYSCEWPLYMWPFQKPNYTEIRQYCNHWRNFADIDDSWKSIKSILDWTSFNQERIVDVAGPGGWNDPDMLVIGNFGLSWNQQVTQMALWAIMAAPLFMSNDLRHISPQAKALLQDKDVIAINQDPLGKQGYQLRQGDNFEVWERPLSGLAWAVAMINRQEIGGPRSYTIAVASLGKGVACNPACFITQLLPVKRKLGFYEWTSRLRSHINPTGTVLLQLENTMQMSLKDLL

ERT-naïve Fabry patients [5] = experiment: Phase 3 study in ERT-naïve Fabry patients: safety analysis and adverse events
Description: as §1, §2

[6] = patients with LVH at baseline, Month 48
[7] = open-label-extension (months 12-24), 6/57 patients

OC[C@H]1NC[C@H](O)[C@@H](O)[C@H]1O [migalastat, (2R,3S,4R,5S)-2-(hydroxymethyl) piperdine-3,4,5-triol]
Effect on MWFS (in words) (ERT-naïve Fabry patients [1]; ERT-naïve patients with impaired MWFS at baseline): increased MWFS | Change from baseline in MWFS, mean (ERT-naïve Fabry patients [1]; patients with LVH at baseline, LOCF, over 48 months): 1.0% | Change from baseline in MWFS, mean (ERT-naïve Fabry patients [1]; patients with LVH at baseline, Month 12): 0.2% | Change from baseline in MWFS, mean (ERT-naïve Fabry patients [1]; patients with LVH at baseline, Month 24): 0.9% | Change from baseline in MWFS, mean (ERT-naïve Fabry patients [1]; patients with LVH at baseline, Month 36): 0.7% | Change from baseline in MWFS, mean (ERT-naïve Fabry patients [1]; [6]): 0.6% | Normalization of MWFS, patients n/N (%) (ERT-naïve Fabry patients [1]; [6]): 0 | Mean change from baseline in MWFS (ERT-naïve Fabry patients [1]; patients with impaired MWFS at baseline, LOCF, over 48 months): 1.9% | Mean change from baseline in MWFS (ERT-naïve Fabry patients [1]; patients with impaired MWFS at baseline, LOCF, over 48 months, listed as Migalastat): 1.9% | Mean change from baseline in MWFS (ERT-naïve Fabry patients [1]; patients with impaired MWFS at baseline, Month 12, 150 mg migalastat HCl QOD): 0.1% | Mean change from baseline in MWFS (ERT-naïve Fabry patients [1]; patients with impaired MWFS at baseline, Month 24): 1.4% | Mean change from baseline in MWFS (ERT-naïve Fabry patients [1]; patients with impaired MWFS at baseline, Month 36): 1.4% | Mean change from baseline in MWFS (ERT-naïve Fabry patients [1]; patients with impaired MWFS at baseline, Month 48): 2.4% | Normalization of MWFS, patients n/N (%) (ERT-naïve Fabry patients [1]; patients with impaired MWFS at baseline, Month 12): 0 | Effect on MWFS (in words) ([2]; ERT-experienced patients with impaired MWFS at baseline): stabilized MWFS | Mean change from baseline in MWFS ([2]; patients with impaired MWFS at baseline, LOCF, over 30 months of migalastat therapy, n=14): −0.2% | Deaths (ERT-naïve Fabry patients [3]): No deaths were reported | Binding to the active site of α-Gal A (in words) [4]: high affinity | Patients who experienced serious adverse events (ERT-naïve Fabry patients [5]; Stage 1, migalastat group): 2 patients | Patients who experienced serious adverse events (ERT-naïve Fabry patients [5]; Stage 2): 5 patients | Adverse event frequency: procedural pain (related to kidney biopsies) (ERT-naïve Fabry patients [5]; Stage 2 (months 6-12, open-label), 7/63 patients): 11% | Adverse event frequency: headache (ERT-naïve Fabry patients [5]; Stage 2 (months 6-12, open-label), 9/63 patients): 14% | Progression to end-stage renal disease, cardiac death, stroke (ERT-naïve Fabry patients [5]; as defined in Banikazemi et al.): no progression to end-stage renal disease, no cardiac death and no stroke | Patients who discontinued migalastat due to serious adverse events (ERT-naïve Fabry patients [5]; both deemed unrelated to migalastat): Two | Serious adverse events assessed as possibly related to migalastat by the investigator (ERT-naïve Fabry patients [5]; fatigue and paresthesia, same patient, months 12-24, resolved): Two | Adverse events leading to migalastat discontinuation (ERT-naïve Fabry patients [5]; human, in vivo): No adverse events led to migalastat discontinuation | Severity of most adverse events (ERT-naïve Fabry patients [5]; human, in vivo): mild or moderate in severity | Vital sign, physical findings, laboratory and ECG parameters (ERT-naïve Fabry patients [5]; human, in vivo): did not reveal any clinically relevant effect | Transient ischemic attack (ERT-naïve Fabry patients [5]; judged unrelated to migalastat): single case | Patients who experienced serious adverse events (ERT-naïve Fabry patients [5]; open-label-extension): 11 patients | Adverse event frequency: bronchitis (ERT-naïve Fabry patients [5]; [7]): 11% | Adverse event frequency: headache (ERT-naïve Fabry patients [5]; [7]): 11% | Adverse event frequency: proteinuria (treatment-emergent) (ERT-naïve Fabry patients [5]; open-label-extension (months 12-24), 9/57 patients): 16% | Patients in whom 24-hour urine protein remained stable during migalastat treatment (ERT-naïve Fabry patients [5]; patients with baseline proteinuria <300 mg/24-h): 23/28
